This assay concerns the target Cyclin-dependent kinase 2 (Homo sapiens, UniProt P24941). The experiment in a line: Protein Kinase Assay. To be noted: pH 7.5; 30 °C. The protocol: We incubated human recombinant CDK2/cyclin A with small molecules at the indicatedconcentrations in buffer A (Tris HCl (25 mm, pH 7.5), MgCl2 (10 mm), EGTA (1 mm), DTT (1 mm), heparin ([…])) containing histone H1 (1 mg/mL), […] and [g-33P]ATP (15 mm, 3,000 Cimmol^-1; 10 mCi/mL) in a […]. After 30 min incubation at 30 C , we stopped the reaction by using a MicroBeta FilterMate-96 Harvester and P81 phosphocellulose papers , which we washed in phosphoric acid (1 %). We added scintillation fluid, and we measured the radioactivity in a counter with microplate robotic stackers. We calculated kinase activity as picomoles of phosphate incorporated during the 30 min incubation. We evaluated percentage kinase activity as the amount compared to that measured in the absence of inhibitors.

Kd data for five compounds are collected here from BindingDB's records for doi:10.1002/cbic.201402579 (2015).

The structures appear in SMILES notation.

On to `NNc1ncnc2sc3c(c12)CCC3` [7,8-dihydro-6H-cyclopenta[4,5]thieno[1,2-c]pyrimidin-1-yldiazane], for which the affinity, expressed as Kd, was 287 µM.

Take `NNc1ncnc2sc3c(c12)CCCCC3` [4-hydrazino-6,7,8,9-tetrahydro-5H-cyclohepta[4,5]thieno[2,3-d]pyrimidine (A1)]: the Kd (in general, the equilibrium constant for the complex coming apart) amounted to 32.5 µM.

Take `CC(=O)OCc1cc(O)c2c(c1)C(=O)c1cccc(O)c1C2=O` [11-O-acetyl-aloe-emodin]: binding was characterised by a dissociation constant (Kd) of 17.8 µM.

The compound `O=C(O)c1cc(O)c2c(c1)C(=O)c1cccc(O)c1C2=O` [RHEIN] yielded a Kd of 9.6 µM.

On to `NNc1ncnc2sc3c(c12)CCCC3` [4-hydrazino-5,6,7,8-tetrahydro[1]benzothieno[2,3-d]pyrimidine (A)], for which the Kd stood at 28.3 µM.
